Results as given in patent US8822500B2, “Tyrosine kinase inhibitors” (Chembridge Corporation, priority 2008, dated 2014).
Where “and” joins values, the source holds several entries; their conditions need not be identical. Equal entries are not always repeated. Where two headings read alike, the source gives them in different places.

Experiments:
[1] = system: NPM-ALK C1156Y BaF3 cells; test: BaF3 stables cell viability (WST-1); conditions: Mus musculus, BaF3, read-out: BaF3 Stables IC50 nM C1156Y
[2] = system: EML4-ALK C1156Y BaF3 cells; test: BaF3 stables cell viability (WST-1); conditions: Mus musculus, BaF3, read-out: BaF3 Stables IC50 nM C1156Y
[3] = system: FLT3-ITD BaF3 cells; test: BaF3 stables cell viability (WST-1); conditions: Mus musculus, BaF3, read-out: BaF3 Stables IC50 nM FLT3-ITD
[4] = system: EML4-ALK R1275Q BaF3 cells; test: BaF3 stables cell viability (WST-1); conditions: Mus musculus, BaF3, read-out: BaF3 Stables IC50 nM R1275Q, EML4-ALK construct
[5] = system: NPM-ALK BaF3 cells; test: BaF3 stables cell viability (WST-1); conditions: Mus musculus, BaF3, read-out: BaF3 Stables IC50 nM NPMALK
[6] = molecular target: ALK (WT) (Homo sapiens (Human), UniProt Q9UM73); test: Cell free kinase assay (Carna Biosciences kinases); assay type: biochemical
[7] = molecular target: ALK (Homo sapiens (Human), UniProt Q9UM73); test: In vitro kinase activity assay (LANCE TR-FRET); assay type: biochemical; conditions: read-out: GTx-ALK IC50;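 further: kinase reactions with ATP and a poly-GT peptide substrate, phosphorylated product read by time-resolved FRET, 11-point curve from 10^−11 to 10^−5 M, DMSO as negative control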
[8] = molecular target: ALK R1275Q (Homo sapiens (Human), UniProt Q9UM73, R1275Q); test: Cell free kinase assay (Carna Biosciences kinases); assay type: biochemical
[9] = system: EML4-ALK BaF3 cells; test: BaF3 stables cell viability (WST-1); conditions: Mus musculus, BaF3, read-out: BaF3 Stables IC50 nM EML4-ALK
[10] = system: NPM-ALK R1275Q BaF3 cells; test: BaF3 stables cell viability (WST-1); conditions: Mus musculus, BaF3, read-out: BaF3 Stables IC50 nM R1275Q
[11] = Rat pharmacokinetics / bioavailability; assay type: in vivo
[12] = in vitro; conditions: rat, microsomes
[13] = molecular target: RET (Homo sapiens (Human), UniProt P07949); test: In vitro kinase activity assay (LANCE TR-FRET); assay type: biochemical; conditions: read-out: RET (nM) IC50
[14] = system: K299 lymphoma cells; test: Cellular assay, 3 day cell viability (WST-1); assay type: cell-based; conditions: 3 days, read-out: K299 IC50
[15] = Caco-2 cell permeation study; assay type: in vitro ADME; conditions: human, Caco-2, 10 μM;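 further: Caco-2 monolayers grown for 21–28 days with integrity confirmed by TEER, apical buffer HBSS with MES, basolateral buffer HBSS with HEPES, compound levels quantified by LC/MS/MS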
[16] = system: NB-1 neuroblastoma cells; test: Cellular assay, 3 day cell viability (WST-1); assay type: cell-based; conditions: 72 h, 3 days, WST-1, read-out: NB-1 IC50
[17] = Metabolic stability, Phase I microsome reactions; assay type: in vitro ADME, mouse; conditions: mouse, pH 7.4, Phase I only, 1.0 mg/ml microsomes, read-out: Mouse LM-P1 Half-life
[18] = molecular target: TrkB (Homo sapiens (Human), UniProt Q16620); test: In vitro kinase activity assay (LANCE TR-FRET); assay type: biochemical; conditions: read-out: TrkB (nM) IC50
[19] = Mouse pharmacokinetics; conditions: for AUC: plasma, 10 mg/kg
[20] = Metabolic stability, Phase I microsome reactions; conditions: rat, microsomes
[21] = molecular target: ROS (Homo sapiens (Human), UniProt P08922); test: In vitro kinase activity assay (LANCE TR-FRET); assay type: biochemical; conditions: read-out: ROS (nM) IC50
[22] = molecular target: hERG potassium channel (Homo sapiens (Human), UniProt Q12809); test: hERG potassium channel current, automated patch clamp (PatchXpress 7000A); conditions: human; for inhibition at 5 min, 30 µM: 30 μM (low solubility at this concentration);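 on all read-outs here: Four-point series of 0.3, 3, 10 and 30 µM, two cells recorded per concentration, 5 min exposure at each level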
[23] = molecular target: hERG (human ether-a-go-go related gene) potassium channel (Homo sapiens (Human), UniProt Q12809); test: as above
[24] = microsomes, 0.5 μM, pH 7.4
[25] = Dog pharmacokinetics
[26] = system: U937 lymphoma cells; test: Cellular assay, 3 day cell viability (WST-1); assay type: cell-based; conditions: Homo sapiens, U-937, 72 h; 3 days, WST-1; read-out: U937 IC50
[27] = system: SUDHL-1 lymphoma cells; test: Cellular assay, 3 day cell viability (WST-1); assay type: cell-based; conditions: 3 days, WST-1; read-out: SUDHL-1 IC50
[28] = in vitro; conditions: human, microsomes
[29] = Guinea pig pharmacokinetics; conditions: for AUC(0-t): plasma, 10 mg/kg
[30] = male, Sprague-Dawley, plasma, iv, 10 mg/kg I.V.
[31] = male, Sprague-Dawley, plasma, po, 10 mg/kg P.O.
[32] = Individual Data Points (% Inhibition)
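Wherever Human LM-P1 Half-life (min) is given: liver microsomes at 1.0 mg/ml with NADPH regenerating system, 37 °C, sampled at 0, 5, 10, 30 and 60 min, parent compound quantified by LC-MS/MS.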

Chain of hERG (human ether-a-go-go related gene) potassium channel (Q12809 whole entry): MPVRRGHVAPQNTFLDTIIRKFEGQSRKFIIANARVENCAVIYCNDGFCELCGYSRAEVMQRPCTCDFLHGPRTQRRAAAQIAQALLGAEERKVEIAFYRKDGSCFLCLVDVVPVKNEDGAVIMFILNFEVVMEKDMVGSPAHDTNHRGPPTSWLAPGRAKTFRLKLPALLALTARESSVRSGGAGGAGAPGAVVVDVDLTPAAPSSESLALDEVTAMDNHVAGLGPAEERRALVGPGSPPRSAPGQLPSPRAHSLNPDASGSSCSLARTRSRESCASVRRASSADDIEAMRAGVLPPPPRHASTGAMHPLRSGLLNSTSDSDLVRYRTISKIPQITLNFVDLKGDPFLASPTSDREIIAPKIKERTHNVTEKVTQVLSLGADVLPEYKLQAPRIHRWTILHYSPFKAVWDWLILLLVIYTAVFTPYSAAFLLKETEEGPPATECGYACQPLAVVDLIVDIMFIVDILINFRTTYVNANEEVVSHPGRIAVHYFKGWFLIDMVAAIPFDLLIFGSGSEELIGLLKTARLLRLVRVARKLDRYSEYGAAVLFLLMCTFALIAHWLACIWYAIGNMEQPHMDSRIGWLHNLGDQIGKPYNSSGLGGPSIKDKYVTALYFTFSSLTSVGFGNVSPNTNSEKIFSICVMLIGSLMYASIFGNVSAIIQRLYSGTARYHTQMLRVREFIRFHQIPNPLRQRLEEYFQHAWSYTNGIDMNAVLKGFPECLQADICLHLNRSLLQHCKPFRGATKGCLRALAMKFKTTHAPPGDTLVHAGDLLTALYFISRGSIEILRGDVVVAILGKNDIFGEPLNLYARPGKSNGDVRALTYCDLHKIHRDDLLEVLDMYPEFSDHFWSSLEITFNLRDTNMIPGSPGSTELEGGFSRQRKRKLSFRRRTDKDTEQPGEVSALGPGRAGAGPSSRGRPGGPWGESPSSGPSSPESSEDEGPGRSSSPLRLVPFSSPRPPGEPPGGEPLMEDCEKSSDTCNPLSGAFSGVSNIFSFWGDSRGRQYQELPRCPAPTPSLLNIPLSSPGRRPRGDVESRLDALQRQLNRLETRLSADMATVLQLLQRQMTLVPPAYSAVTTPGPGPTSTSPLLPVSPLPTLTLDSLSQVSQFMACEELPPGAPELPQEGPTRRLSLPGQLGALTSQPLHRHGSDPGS
Chain of hERG potassium channel (Q12809 whole entry): as above
Chain of ALK (Q9UM73 19-1620): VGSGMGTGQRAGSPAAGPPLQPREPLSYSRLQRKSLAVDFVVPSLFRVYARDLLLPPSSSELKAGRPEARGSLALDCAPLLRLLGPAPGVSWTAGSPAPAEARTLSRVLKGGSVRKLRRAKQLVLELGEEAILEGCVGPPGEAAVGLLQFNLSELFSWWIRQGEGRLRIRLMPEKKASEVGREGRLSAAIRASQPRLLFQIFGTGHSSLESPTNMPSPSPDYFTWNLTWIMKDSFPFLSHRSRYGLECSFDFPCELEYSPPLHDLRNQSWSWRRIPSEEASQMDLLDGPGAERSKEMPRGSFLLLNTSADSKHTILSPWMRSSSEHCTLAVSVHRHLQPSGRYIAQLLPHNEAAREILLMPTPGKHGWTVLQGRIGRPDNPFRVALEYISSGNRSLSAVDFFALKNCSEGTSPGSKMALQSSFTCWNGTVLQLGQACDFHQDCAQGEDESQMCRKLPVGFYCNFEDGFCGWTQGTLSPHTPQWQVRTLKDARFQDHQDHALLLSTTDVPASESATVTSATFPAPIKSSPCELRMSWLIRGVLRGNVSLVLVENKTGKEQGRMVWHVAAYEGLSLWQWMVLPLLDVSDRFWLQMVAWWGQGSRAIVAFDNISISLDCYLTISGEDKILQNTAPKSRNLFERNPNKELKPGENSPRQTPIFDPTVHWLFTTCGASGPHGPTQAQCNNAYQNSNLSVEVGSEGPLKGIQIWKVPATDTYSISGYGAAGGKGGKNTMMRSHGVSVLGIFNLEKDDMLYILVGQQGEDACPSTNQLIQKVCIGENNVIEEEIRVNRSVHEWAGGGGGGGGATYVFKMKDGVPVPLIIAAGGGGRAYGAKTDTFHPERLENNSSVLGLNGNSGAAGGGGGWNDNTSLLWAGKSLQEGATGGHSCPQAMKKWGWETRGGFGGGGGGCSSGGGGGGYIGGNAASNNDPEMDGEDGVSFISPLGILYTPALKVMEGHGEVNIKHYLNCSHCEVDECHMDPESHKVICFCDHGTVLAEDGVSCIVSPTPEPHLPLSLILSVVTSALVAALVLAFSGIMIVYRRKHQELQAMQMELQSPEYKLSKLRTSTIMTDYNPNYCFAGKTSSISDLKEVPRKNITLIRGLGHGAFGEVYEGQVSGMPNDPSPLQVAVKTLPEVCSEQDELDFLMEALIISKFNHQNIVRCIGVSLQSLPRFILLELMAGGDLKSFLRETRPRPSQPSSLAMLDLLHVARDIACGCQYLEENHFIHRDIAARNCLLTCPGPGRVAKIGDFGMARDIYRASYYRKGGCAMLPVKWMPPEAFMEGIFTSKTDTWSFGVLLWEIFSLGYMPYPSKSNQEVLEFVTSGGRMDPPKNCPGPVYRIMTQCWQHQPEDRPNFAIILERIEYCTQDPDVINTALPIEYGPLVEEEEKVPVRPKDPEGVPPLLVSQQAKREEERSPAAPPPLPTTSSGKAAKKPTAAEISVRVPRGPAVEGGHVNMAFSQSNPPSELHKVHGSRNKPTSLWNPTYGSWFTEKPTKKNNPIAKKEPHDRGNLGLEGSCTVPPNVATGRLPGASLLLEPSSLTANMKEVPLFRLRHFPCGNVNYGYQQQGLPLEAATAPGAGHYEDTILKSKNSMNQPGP
Chain of ALK R1275Q (Q9UM73 1060-1620 R1275Q): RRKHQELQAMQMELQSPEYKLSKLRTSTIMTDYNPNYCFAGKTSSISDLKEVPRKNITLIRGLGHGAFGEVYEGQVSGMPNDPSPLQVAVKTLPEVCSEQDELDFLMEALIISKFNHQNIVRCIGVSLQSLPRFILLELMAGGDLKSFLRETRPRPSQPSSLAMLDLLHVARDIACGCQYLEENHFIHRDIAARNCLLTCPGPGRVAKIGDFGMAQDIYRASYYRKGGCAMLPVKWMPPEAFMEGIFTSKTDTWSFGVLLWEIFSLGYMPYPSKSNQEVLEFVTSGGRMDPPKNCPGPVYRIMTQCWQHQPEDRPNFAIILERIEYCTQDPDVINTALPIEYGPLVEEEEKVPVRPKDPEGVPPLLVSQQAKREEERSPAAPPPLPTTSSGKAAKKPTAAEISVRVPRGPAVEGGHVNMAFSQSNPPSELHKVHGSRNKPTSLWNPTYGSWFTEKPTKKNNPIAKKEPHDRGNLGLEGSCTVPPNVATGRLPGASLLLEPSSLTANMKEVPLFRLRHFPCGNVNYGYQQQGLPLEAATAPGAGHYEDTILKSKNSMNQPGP
Chain of ALK (WT) (Q9UM73 1060-1620): as the sequence (Q9UM73 1060-1620 R1275Q) above, with Q216R counted along it

Q: With `Cc1ccc(F)cc1C[C@H](C)Nc1cc[nH]c(=O)c1-c1nc2cc3c(cc2[nH]1)CN(CCN(C)C)C3=O` (stereo in doubt) [Compound 45, 2-(4-(1-(5-Fluoro-2-methylphenyl)propan-2-ylamino)-2-oxo-1,2-dihydropyridin-3-yl)-6-(2-(dimethylamino)ethyl)-6,7-dihydroimidazo[4,5-f]isoindole-5(1H)-one] as the compound, how does the IC50 [1] read?
A: The IC50 was 72 ± 1.2 nM.

Q: What about the IC50 [2] of the same compound?
A: Its IC50 is 90 ± 3.2 nM.

Q: And the IC50 [3]?
A: The IC50 was > 1 nM.

Q: And the IC50 [4]?
A: The IC50 was ~90 nM.

Q: And the IC50 [5]?
A: Its IC50 is 46 ± 2 nM.

Q: And the IC50 [6]?
A: Its IC50 is 3.3 nM.

Q: And the IC50 [7]?
A: Its IC50 is 7 nM and 14 nM.

Q: And the IC50 ([8]; read-out: Cell Free IC50 (nM) R1275O)?
A: Its IC50 is 16.8 nM.

Q: And the “cell free R1275Q resistance” value ([8]; vs ALK (WT))?
A: Its value is 4 fold.

Q: What about the IC50 [9] of the same compound?
A: Its IC50 is 66 ± 2.7 nM.

Q: And the IC50 [10]?
A: The IC50 was 81 ± 4.2 nM.

Q: Which “IV_AUC0-1440 Rat 10 mpk” value ([11]; 10 mg/kg I.V.) does the source give for `C[C@@H](Cc1c(F)c(F)cc(F)c1F)Nc1cc[nH]c(=O)c1-c1nc2cc3c(cc2[nH]1)CN(CCN(C)C)C3=O` [Compound 1, (S)-6-(2-(Dimethylamino)ethyl)-2-(2-oxo-4-((1-(2,3,5,6-tetrafluorophenyl)propan-2-yl)amino)-1,2-dihydropyridin-3-yl)-6,7-dihydroimidazo[4,5-f]isoindol-5(3H)-one] here?
A: Its value is 329 µg·min/mL.

Q: And the “PO_AUC0-1440 Rat 10 mpk” value ([11]; 10 mg/kg P.O.)?
A: The value was 0.943 µg·min/mL.

Q: What about the MRT [11, 30] of the same compound?
A: Its MRT is 22.7 h.

Q: What about the clearance [11, 30] of the same compound?
A: Its clearance is 25.5 mL/min/kg.

Q: And the half-life [11, 30]?
A: Its half-life is 22.1 h.

Q: And the Vd ([11]; male, Sprague-Dawley, plasma, iv, 10 mg/kg I.V., read-out: Vss)?
A: Its Vd is 23.9 L/kg.

Q: What about the Cmax [11, 31] of the same compound?
A: Its Cmax is 2.21 ng/mL.

Q: And the Tmax [11, 31]?
A: The Tmax was 1.88 h.

Q: And the bioavailability ([11]; male, Sprague-Dawley, plasma, po, 10 mg/kg P.O., read-out: Rat F %)?
A: Its bioavailability is 0.287%.

Q: And the half-life at 0.5 μM ([12]; pH 7.4)?
A: The half-life at 0.5 μM was 8.43 min.

Q: What about the microsomal CLint at 0.5 μM ([12]; pH 7.4, Rat LM-P1 CL (ul/min/mg)) of the same compound?
A: The microsomal CLint at 0.5 μM was 82.2 µL/min/mg.

Q: What about the IC50 [13] of the same compound?
A: The IC50 was 3.53 nM.

Q: What about the IC50 ([14]; 72 h) of the same compound?
A: Its IC50 is 76 nM.

Q: What about the IC50 [14] of the same compound?
A: Its IC50 is 73 nM.

Q: What about the Papp A→B at 2 h, 10 μM ([15]; apical pH 6.5, 2 h) of the same compound?
A: Its Papp A→B at 2 h, 10 μM is < 0.2 ×10⁻⁶ cm/s.

Q: And the Papp B→A at 2 h, 10 μM ([15]; basolateral pH 7.4, 2 h)?
A: Its Papp B→A at 2 h, 10 μM is 19.9 ×10⁻⁶ cm/s.

Q: What about the IC50 [3] of the same compound?
A: The IC50 was > 3 nM.

Q: What about the IC50 [16] of the same compound?
A: Its IC50 is 177 nM.

Q: What about the half-life at 0.5 μM [17] of the same compound?
A: The half-life at 0.5 μM was 8.4 min.

Q: What about the IC50 [18] of the same compound?
A: Its IC50 is 2.06 nM.

Q: What about the F ([19]; 10 mg/kg SC) of the same compound?
A: The F was 30%.

Q: And the AUC ([19]; iv)?
A: The AUC was 1770 ng·h/mL.

Q: What about the AUC ([19]; sc) of the same compound?
A: Its AUC is 522 ng·h/mL.

Q: And the microsomal CLint at 0.5 μM ([20]; pH 7.4)?
A: Its microsomal CLint at 0.5 μM is 100 µL/min/mg.

Q: What about the half-life at 0.5 μM ([20]; pH 7.4, Rat LM-P1 Half-life (min), Phase I only, 0.5 μM, 1.0 mg/ml microsomes) of the same compound?
A: The half-life at 0.5 μM was 6.99 min.

Q: What about the IC50 [21] of the same compound?
A: Its IC50 is 0.205 nM.

Q: What about the inhibition at 5 min, 0.3 µM [22, 32] of the same compound?
A: Its inhibition at 5 min, 0.3 µM is 5.9%.

Q: What about the inhibition at 5 min, 3 µM [22, 32] of the same compound?
A: The inhibition at 5 min, 3 µM was 43.6%.

Q: And the inhibition at 5 min, 10 µM [22, 32]?
A: The inhibition at 5 min, 10 µM was 59.4%.

Q: And the inhibition at 5 min, 30 µM [22, 32]?
A: The inhibition at 5 min, 30 µM was 71.1%.

Q: What about the inhibition at 5 min, 0.3 µM ([22]; Mean % hERG Inhibition) of the same compound?
A: Its inhibition at 5 min, 0.3 µM is 5.5%.

Q: And the inhibition at 5 min, 3 µM ([22]; Mean % hERG Inhibition)?
A: The inhibition at 5 min, 3 µM was 39.9%.

Q: What about the inhibition at 5 min, 10 µM ([22]; Mean % hERG Inhibition) of the same compound?
A: The inhibition at 5 min, 10 µM was 54.4%.

Q: What about the inhibition at 5 min, 30 µM ([22]; Mean % hERG Inhibition) of the same compound?
A: The inhibition at 5 min, 30 µM was 66.9%.

Q: And the IC50 [23]?
A: Its IC50 is 6250 nM.

Q: What about the “Individual Data Points (% Inhibition)” value ([23]; 0.3 μM) of the same compound?
A: Its value is 5.0%.

Q: And the “Individual Data Points (% Inhibition)” value ([23]; 3 μM)?
A: Its value is 36.3%.

Q: What about the “Individual Data Points (% Inhibition)” value ([23]; 10 μM) of the same compound?
A: The value was 49.4%.

Q: What about the “Individual Data Points (% Inhibition)” value ([23]; 30 μM (low solubility at this concentration)) of the same compound?
A: Its value is 62.7%.

Q: And the “Human LM-P1 Half-life” value [24]?
A: The value was >2 h.

Q: And the F ([25]; 5 mg/kg PO)?
A: The F was 12%.

Q: And the AUC(0-t) ([25]; plasma, iv, 1 mg/kg)?
A: The AUC(0-t) was 483 ng·h/mL.

Q: What about the AUC ([25]; plasma, po, 5 mg/kg) of the same compound?
A: The AUC was 287 ng·h/mL.

Q: And the IC50 [26]?
A: Its IC50 is 1600 nM.

Q: What about the IC50 [27] of the same compound?
A: Its IC50 is 22 nM.

Q: And the IC50 [10]?
A: The IC50 was 279 ± 21 nM.

Q: And the microsomal CLint at 0.5 μM ([28]; pH 7.4, Human LM-P1 CL (ul/min/mg))?
A: The microsomal CLint at 0.5 μM was 5.87 µL/min/mg.

Q: And the half-life at 0.5 μM ([28]; pH 7.4, Human LM-P1 Half-life (min))?
A: Its half-life at 0.5 μM is 1.97 h.

Q: And the F ([29]; 10 mg/kg PO)?
A: The F was 1%.

Q: And the AUC(0-t) ([29]; iv)?
A: The AUC(0-t) was 3570 ng·h/mL.

Q: What about the AUC(0-t) ([29]; po) of the same compound?
A: The AUC(0-t) was 37.2 ng·h/mL.
